Assay: Bioavailability of levosimendan following buccal and intravenous administration in dogs (plasma concentration)
Format: in vivo, beagle dogs
Conditions: for concentration at 10 min / concentration at 20 min / concentration at 40 min / concentration at 60 min / concentration at 90 min / concentration at 120 min: beagle, dog, plasma, 0.02 mg/kg; for concentration at 10 min / concentration at 20 min / concentration at 40 min / concentration at 60 min / concentration at 90 min / concentration at 120 min / Levosimendan concentration: dog plasma; for Levosimendan concentration: 0 min
Procedure: Bioavailability of levosimendan was studied in dogs following buccal and intravenous administration of 0.02 mg/kg of the compound. As experimental animals, three beagle dogs were used. At the time of dosing all animals weighed approximately 10 kg. The dogs were given levosimendan as an intravenous injection or buccal spray at one week intervals. Appropriate concentration (2 mg/ml in 96% ethanol) of the compound was prepared in 10 ml amber glass containers sealed with spray nozzles (50 μl dose, Pfeiffer). The 0.02 mg/kg buccal dose was thus obtained by spraying 2 consecutive 50 μl doses to the buccal cavity of the animals (the dosing volume being thus 0.1 ml/10 kg). The iv dose (0.1 ml/10 kg) was taken from the same bottles.
5 ml of blood was collected from the cephalic vein at the following times after administration: 0, 10, 20, 40, min, 1, 1.5 and 2 hours. Plasma was separated and stored frozen in −20 ° C. until analyzed.
Levosimendan in dog plasma was determined by a non-enantioselective method, in which an automated sample preparation technique combined with high performance liquid chromatography was used. The plasma clean-up was performed by on-line dialysis and the, dialysate was retained on a trace enrichment column. The analyte was then-separated on an analytical column and detected with a UV-detector. The limit of quantitation was 5 ng/ml and the quantitation range 5-500 ng/ml.
The apparatus comprised a Gilson ASTED (Automated Sequential Trace Enrichment System) system (Gilson Medical Electronics, Villiers-le-Bel, France). The dialysis cell was fitted with a Cuprophan cellulose membrane with a molecular cut-off of 15 kDa and the trace enrichment column was a Hypersil ODS (5.8×4.6 mm i.d., 10 μm). The chromatographic system consisted of an LKB Model 2150 pump (Bromma, Sweden) and a Lichrosorb RP-18 (250×4 mm i.d., 10 μm) column (Merck, Darmstadt, Germany). The detector was a Spectra 100 UV-VIS (Spectra-Physics, San Jose, Calif., USA). The wavelength was 380 nm. The mobile phase consisted of a 32 mM monosodium dihydrogen phosphate buffer, methanol, and tetrahydrofuran (45:65:1, v/v/v, pH 3.5). The mobile phase flow rate was 1.0 ml/min.

[1] = other: buccal spray, buccal spray 0.02 mg/kg, Dog 1
[2] = other: buccal spray, buccal spray 0.02 mg/kg, Dog 2
[3] = other: buccal spray, buccal spray 0.02 mg/kg, Dog 3

A concentration at 10 min (iv, iv 0.02 mg/kg, Dog 1) of 0.128 µg/mL, a concentration at 10 min (iv, iv 0.02 mg/kg, Dog 2) of 0.103 µg/mL and a concentration at 10 min (iv, iv 0.02 mg/kg, Dog 3) of 0.1 µg/mL were found for CC1CC(=O)NN=C1c1ccc(NN=C(C#N)C#N)cc1 (single isomer, unassigned; (-)) [Levosimendan, (-)-enantiomer of [[4-(1,4,5,6-tetrahydro-4-methyl-6-oxo-3-pyridazinyl)phenyl]hydrazono]propanedinitrile] in this work. It also gave a concentration at 20 min (iv, iv 0.02 mg/kg, Dog 1) of 0.105 µg/mL, a concentration at 20 min (iv, iv 0.02 mg/kg, Dog 2) of 0.071 µg/mL and a concentration at 20 min (iv, iv 0.02 mg/kg, Dog 3) of 0.082 µg/mL. For the same compound, the concentration at 40 min (iv, iv 0.02 mg/kg, Dog 1) was 0.074 µg/mL, the concentration at 40 min (iv, iv 0.02 mg/kg, Dog 2) was 0.046 µg/mL and the concentration at 40 min (iv, iv 0.02 mg/kg, Dog 3) was 0.058 µg/mL. The concentration at 60 min (iv, iv 0.02 mg/kg, Dog 1) was 0.058 µg/mL, the concentration at 60 min (iv, iv 0.02 mg/kg, Dog 2) was 0.036 µg/mL and the concentration at 60 min (iv, iv 0.02 mg/kg, Dog 3) was 0.046 µg/mL. It also gave a concentration at 90 min (iv, iv 0.02 mg/kg, Dog 1) of 0.039 µg/mL, a concentration at 90 min (iv, iv 0.02 mg/kg, Dog 2) of 0.024 µg/mL and a concentration at 90 min (iv, iv 0.02 mg/kg, Dog 3) of 0.033 µg/mL. It also gave a concentration at 120 min (iv, iv 0.02 mg/kg, Dog 1) of 0.028 µg/mL, a concentration at 120 min (iv, iv 0.02 mg/kg, Dog 2) of 0.015 µg/mL and a concentration at 120 min (iv, iv 0.02 mg/kg, Dog 3) of 0.025 µg/mL. The concentration at 10 min [1] was 0.01 µg/mL, the concentration at 10 min [2] was 0.017 µg/mL and the concentration at 10 min [3] was 0.0076 µg/mL. The concentration at 20 min [1] was 0.024 µg/mL, the concentration at 20 min [2] was 0.024 µg/mL and the concentration at 20 min [3] was 0.0094 µg/mL. The concentration at 40 min [1] was 0.032 µg/mL, the concentration at 40 min [2] was 0.025 µg/mL and the concentration at 40 min [3] was 0.025 µg/mL. The concentration at 60 min [1] was 0.026 µg/mL, the concentration at 60 min [2] was 0.022 µg/mL and the concentration at 60 min [3] was 0.024 µg/mL. It also gave a concentration at 90 min [1] of 0.018 µg/mL, a concentration at 90 min [2] of 0.017 µg/mL and a concentration at 90 min [3] of 0.022 µg/mL. For the same compound, the concentration at 120 min [1] was 0.013 µg/mL, the concentration at 120 min [2] was 0.012 µg/mL and the concentration at 120 min [3] was 0.016 µg/mL. The Levosimendan concentration (buccal spray 0.02 mg/kg, Dog 1) was “< (< means below quantitation range)”, the Levosimendan concentration (buccal spray 0.02 mg/kg, Dog 2) was “< (< means below quantitation range)” and the Levosimendan concentration (buccal spray 0.02 mg/kg, Dog 3) was “< (< means below quantitation range)”. The Levosimendan concentration (iv 0.02 mg/kg, Dog 1) was “< (< means below quantitation range)”, the Levosimendan concentration (iv 0.02 mg/kg, Dog 2) was “< (< means below quantitation range)” and the Levosimendan concentration (iv 0.02 mg/kg, Dog 3) was “< (< means below quantitation range)”. The “Absorption into blood from the buccal spray” value (dogs, buccal spray 0.02 mg/kg) was “rapidly absorbed into blood” and the “Serum levels of levosimendan” value (dogs, buccal spray 0.02 mg/kg) was “steady serum levels”.

Reference: patent US6399610B1, “Transmucosal formulations of levosimendan” (Orion Corporation, priority 1997, dated 2002)
